Our source for the TGI values is PubChem BioAssay (NCI).

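How tested: cells in 96-well plates exposed to compound for 48 hours at five concentrations. TGI is the concentration that stops growth completely.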

Holding throughout (experiment): inhibition of tumour cell growth, NCI panel, 48 h
Assay [1] has as its system A549 NSCLC.
For assay [2], the system named is BT-549 breast.
Assay [3] has as its system HOP-62 NSCLC.
The test system of assay [4] is MALME-3M melanoma.
For assay [5], the system named is HCT-116 colon.
Assay [6] concerns MDA-MB-435.
In assay [7] the test system is SNB-19 CNS.
Assay [8] concerns MOLT-4 leukemia.
In assay [9] the test system is HT29 colon.
Assay [10] concerns COLO 205 colon.
Assay [11] deals with T-47D breast.
The subject of assay [12] is 786-0 renal.
In assay [13] the test system is NCI/ADR-RES ovarian.

Take `Cc1nn(C(=O)Cc2ccccc2)c2c1C(c1ccccc1)SC(N)=N2` (stereo unspecified): the TGI in [1], in assay [2], in assay [3], in assay [4], in assay [5] and in assay [6] was above 100 µM in each case. The TGI in assay [7], in assay [8], in [9], in assay [10], in [11] and in assay [12] was above 100 µM in each case.

With `O=C1/C(=C\c2ccc(Cl)cc2Cl)Sc2scc(-c3ccc(O)c(O)c3)[n+]21`, the TGI amounted to 44.1 µM in assay [1]; 46.7 µM in assay [2]; 35.6 µM in [13]; 30.1 µM in assay [3]; 29.8 µM in [5]; 57.7 µM in [6]. Also, the TGI came out at 48.8 µM in assay [7]; 29.6 µM in assay [8]; 32.6 µM in [9]; 40.5 µM in assay [10]; 31.6 µM in [12].

Take `C[C@]12c3c4cc(NC(=O)C(=O)NCc5ccc(-c6ccccn6)nc5)cc3Oc3cc(NC(=O)C(=O)NCc5ccc(-c6ccccn6)nc5)cc(c31)OC1C=C(NC(=O)C(=O)NCc3ccc(-c5ccccn5)nc3)C=C(O4)C12` (stereo partly specified): the TGI in assay [1], in [2], in assay [13], in assay [3], in assay [5] and in assay [6] was above 100 µM each time. The TGI in [7] was above 100 µM; in assay [8], above 100 µM; in assay [9], above 100 µM; in assay [10], above 100 µM; in [11], 97.9 µM; in assay [12] it was 75.5 µM.

For the molecule `O=S(=O)(O)c1cc(N=Nc2c(O)ccc3ccccc23)cc2c(S(=O)(=O)O)cccc12`, the TGI in [1], in assay [2], in [13], in assay [3], in [4] and in assay [5] was above 100 µM in each case. Moreover, the TGI in [6], in assay [7], in assay [8], in assay [9], in assay [10] and in assay [12] was above 100 µM in each case.

`CON(C)C(=O)C(C)N(Cc1ccccc1)Cc1ccccc1` (stereo unspecified): the TGI in assay [1], in [2], in [13], in [3], in [4] and in assay [5] was above 100 µM in each case. Also, the TGI in assay [6], in assay [7], in assay [8], in [9] and in assay [12] was above 100 µM each time.

Take `C=C1c2nc3ccccc3n2C=C(c2ccc(OC)cc2)N1c1ccc(OC)cc1`: the TGI in [1] is above 100 µM; in [2], 39.8 µM; in [13], 31.8 µM; in assay [4], 48.4 µM; in assay [5] it was 74.4 µM; in [6] it was above 100 µM. Besides, the TGI was 33.9 µM in assay [7], above 100 µM in assay [8], above 100 µM in assay [10] and above 100 µM in assay [12].

As to `CCCCCCc1cc2cc(-c3cn4ccsc4n3)c(=O)oc2cc1O`, the TGI is above 100 µM in assay [1]; above 100 µM in assay [2]; above 100 µM in assay [13]; above 100 µM in [3]; above 100 µM in assay [5]; above 27.5 µM in [6]. For the same molecule, the TGI in [7], in assay [8], in [9], in assay [10], in assay [11] and in [12] was above 100 µM throughout.

For the molecule `COC(=O)CC(C)(NS(=O)c1ccc(C)cc1)c1ccccc1` (stereo unspecified), the TGI in [1], in assay [13], in assay [3], in [4], in assay [5] and in assay [6] was above 100 µM in each case. Moreover, the TGI in assay [7], in assay [8], in assay [9], in assay [10], in assay [11] and in assay [12] was above 100 µM each time.

For `C/C(=N\NC(N)=S)c1ccc2c(c1)Sc1ccccc1O2`, the TGI in assay [1] was 13.5 µM; in assay [13], 10.6 µM; in [3], 29 µM; in [4] it was above 100 µM; in assay [5] it was 24.3 µM; in [6], 0.95 µM. The TGI in assay [7] is above 100 µM; in assay [8], above 100 µM; in assay [9] it was 5.83 µM; in assay [10] it was 7.28 µM; in assay [11], above 100 µM; in [12], 25.7 µM.

Consider `Cc1ccc(S[C@@H](C)[C@@](O)(CF)CN(Cc2ccccc2)C(=O)C(F)(F)F)cc1`, for which the TGI was 32.1 µM in [1]; 46.5 µM in [2]; 69.5 µM in assay [13]; 44.2 µM in assay [4]; 27.3 µM in assay [5]; 40.4 µM in [6]. In addition, the TGI turned out to be 55 µM in [7], 27.6 µM in assay [9], 68.5 µM in [11] and 35.4 µM in [12].

For the molecule `COC(=O)[C@]1(C)CCC[C@@]2(C)C1CC[C@@]13C=C(C(C)C)[C@@H](CC1=O)CC23` (stereo partly specified), the TGI was above 100 µM in assay [1]; 63.4 µM in assay [2]; 67.5 µM in assay [13]; 83.9 µM in assay [3]; 42 µM in [5]; above 100 µM in assay [6]. The TGI in [7] is 73.4 µM; in assay [8] it was 31 µM; in assay [9], 40.5 µM; in assay [11], above 100 µM; in assay [12], 60.7 µM.

As to `N#CSC#CCCC#CSC#N`, the TGI in assay [1] is 42 µM; in assay [2], 47.7 µM; in assay [13], 74.9 µM; in assay [3], 33.7 µM; in assay [4], 34.3 µM; in assay [5], 48.5 µM. The TGI in assay [6] is 56.2 µM; in assay [7] it was 29 µM; in [8] it was 6.92 µM; in assay [9] it was 45.8 µM; in [10], 26.7 µM; in assay [12] it was 40.4 µM.

With `Nc1ncc2c(n1)-c1ccccc1OC2N1CCCCC1` (stereo unspecified), the TGI in assay [1], in assay [2], in assay [13], in assay [5], in assay [6] and in assay [7] was above 100 µM throughout. Moreover, the TGI in [8], in assay [9], in assay [10], in [11] and in [12] was above 100 µM each time.

As for `COc1ccccc1CC(=O)C(O)(C(F)(F)F)C(F)(F)F`, the TGI in assay [1], in assay [13], in [3], in assay [4], in assay [5] and in assay [6] was above 100 µM throughout. In addition, the TGI in assay [7], in assay [8], in assay [9], in [10], in assay [11] and in assay [12] was above 100 µM throughout.

In the case of `CCOC(=O)c1cc(-c2ccc(OC)cc2)c([N+](=O)[O-])n1C`, the TGI in [1], in [2], in [13], in [4], in assay [5] and in [6] was above 10 µM in each case. Moreover, the TGI in [7], in assay [8], in assay [9] and in assay [12] was above 10 µM in each case.

In the case of `C=CCNC(=S)N/C=C(\C#N)C(N)=O`, the TGI in [1], in assay [13], in assay [3], in assay [4], in assay [5] and in assay [6] was above 100 µM throughout. In addition, the TGI in assay [7], in assay [8], in assay [9], in [10], in assay [11] and in assay [12] was above 100 µM throughout.

In the case of `O=C1OC(c2ccccc2)=N/C1=C\c1ccc([N+](=O)[O-])cc1`, the TGI in [1] was above 100 µM; in [2], 67 µM; in assay [13], 55.1 µM; in [3], above 100 µM; in [5] it was above 100 µM; in [6] it was above 100 µM. Besides, the TGI was above 100 µM in [7]; 58.1 µM in assay [8]; above 100 µM in assay [9]; above 100 µM in assay [10]; 93.9 µM in assay [11]; above 100 µM in assay [12].

Take `CO[C@](C(=O)OC[C@H]1[C@@H](COC(C)=O)[C@@H]2O[C@H]1c1cc3c(cc12)OCO3)(c1ccccc1)C(F)(F)F`: the TGI in [1] was 94.3 µM; in [2], above 100 µM; in assay [3], 73.6 µM; in assay [4], above 100 µM; in [5], above 100 µM; in [6] it was above 100 µM. Further, the TGI in assay [7] is above 100 µM; in assay [8], above 100 µM; in [9] it was above 100 µM; in assay [10] it was 93.2 µM.

`COc1cc2c(/C=C3/C(=O)Nc4cccc(Cl)c43)c(Cl)[nH]c2cc1C`: the TGI in assay [1] is 6.23 µM; in assay [2], 3.67 µM; in assay [13], 3.45 µM; in [3], 10.2 µM; in assay [5], 3.19 µM; in assay [6], 3.44 µM. Besides, the TGI amounted to 7.13 µM in assay [7]; 1.26 µM in assay [8]; 3.96 µM in assay [9]; 4.1 µM in [10]; 5.48 µM in assay [11]; 4.15 µM in [12].

As to `COC(=O)c1ccc(Cc2cc(Cc3ccc(C(=O)OC)cc3)cc(Cc3ccc(C(=O)OC)cc3)c2)cc1`, the TGI in assay [1], in assay [2], in assay [13], in assay [3], in assay [4] and in assay [5] was above 25 µM in each case. Also, the TGI in assay [6], in assay [7], in [8], in assay [9] and in [12] was above 25 µM each time.

For the molecule `CCOC(=O)CCCSCCCC(=O)CCCSCCCC(=O)OCC`, the TGI in [1], in [2], in [13], in assay [3], in assay [5] and in assay [6] was above 100 µM each time. The TGI in [7], in [8], in assay [9], in assay [10], in [11] and in assay [12] was above 100 µM throughout.

As for `Cc1ccc(Nc2nc(NNC(=O)Cc3ccccc3)nc(NNC(=O)c3ccncc3)n2)cc1`, the TGI in assay [1], in assay [2], in [13], in assay [3], in [4] and in [8] was above 10 µM each time. The TGI in assay [9], in [10], in assay [11] and in assay [12] was above 10 µM in each case.

Turning to `CCOC(=O)C12OC(OCC)(CC1(OCC)OCC)C1(CC1)C2=O` (stereo unspecified), the TGI in assay [1], in [2], in assay [13], in assay [3], in assay [4] and in assay [5] was above 100 µM in each case. For the same molecule, the TGI in assay [6], in assay [7], in [8], in assay [9], in assay [10] and in assay [12] was above 100 µM in each case.
